Measured values reported in US10633377B2, “Imidazole and thiazole compositions for modifying biological signaling” (Ohio University, priority 2014, dated 2020).
Values belong to the compound of their own block, whether it stands above or below them.

Tests used:
IL-6 transcripts = assay: Inhibition of LPS induction of IL-6 transcripts in macrophages (rt-PCR); assay type: cell-based, Murine; conditions: Mus musculus, Macrophage; LPS-treated murine macrophages, mRNA transcripts by rt-PCR
Method: (§1) Murine macrophages were treated with LPS in the presence of various exemplary compounds described above. Subsequently, the cells were harvested and the transcripts for IL-6, iNOS, and INF-β quantified via rt-PCR. IC50 is the concentration of the compounds required to inhibit 50% of the mRNA transcripts induced by LPS. TC50 is the concentration of the compounds required to diminish the MTS signal by 50% (MTS signal correlates with cell metabolism/viability). Therapeutic Index (TI) is the ratio of TC50 to IC50.
(§2) In TABLE 4, data are provided that show effects of exemplary compounds described above on the inhibition of LPS induction of IL-6, iNOS, and INF-β transcripts in macrophages. The IL-6, iNOS, and INF-β transcripts are key mediators in a plethora of signaling networks that are involved in normal physiology and pathological processes. The mechanism by which LPS induces the IL-6, iNOS, and INF-β transcripts is via a network of signaling events. […] Data in TABLE 4 that was not calculatable is noted “NC.”

iNOS transcripts = assay: Inhibition of LPS induction of iNOS transcripts in macrophages (rt-PCR); assay type: cell-based; conditions: Mus musculus, Macrophage; LPS-treated murine macrophages, mRNA transcripts by rt-PCR
Method: as §1, §2

INF-β transcripts = assay: Inhibition of LPS induction of INF-β transcripts in macrophages (rt-PCR); assay type: cell-based, Murine; conditions: Mus musculus, Macrophage; LPS-treated murine macrophages, mRNA transcripts by rt-PCR
Method: as §1, §2

[1] = MTS signal (cell metabolism/viability); assay type: cell-based, Murine; conditions: mouse, murine macrophages; concentration required to diminish the MTS signal by 50%; read-out: Average TC50
Method: as §1

Murine macrophages = assay: MTS signal (cell metabolism/viability); assay type: cell-based; conditions: 100 μM
Method: as §1

SMILES: COc1ccc(F)cc1C1(O)CSC(=S)N1Cc1cccnc1 (stereo not shown) [COB-225]
IC50 (IL-6 transcripts): 32.5 µM
IC50 (iNOS transcripts): 1 µM
IC50 (INF-β transcripts): 1 µM
CC50 [1]: 65 µM

SMILES: S=c1scc(-c2ccccc2)n1CCc1ccccc1 [COB-177]
IC50 (IL-6 transcripts): 8 µM
IC50 (iNOS transcripts): 32 µM
IC50 (INF-β transcripts): 13 µM

SMILES: COc1cccc(-c2c[nH]c(=S)n2C)c1 [COB-117]
IC50 (IL-6 transcripts): 30 µM
IC50 (iNOS transcripts): 36 µM
IC50 (INF-β transcripts): 22 µM

SMILES: COc1ccc(OC)c(-c2csc(=S)n2Cc2cccnc2)c1 [COB-203]
IC50 (IL-6 transcripts): 19.5 µM
IC50 (INF-β transcripts): 8 µM
CC50 [1]: 270 µM

SMILES: COc1ccc(-c2csc(=S)n2Cc2cccnc2)c(OC)c1 [COB-204]
IC50 (IL-6 transcripts): 5 µM
IC50 (iNOS transcripts): 7 µM
IC50 (INF-β transcripts): 14 µM
CC50 [1]: 130 µM

SMILES: Cc1ccc(C)c(C2(O)CSC(=S)N2Cc2cccnc2)c1 (stereo not shown) [COB-223]
IC50 (IL-6 transcripts): 3.5 µM
IC50 (iNOS transcripts): 0.4 µM
IC50 (INF-β transcripts): 0.4 µM
CC50 [1]: 14 µM

SMILES: OC1(c2ccccc2)CSC(=S)N1Cc1nc2ccccc2[nH]1 (stereo not shown) [COB-183]
IC50 (IL-6 transcripts): 19 µM
IC50 (iNOS transcripts): 9.5 µM
IC50 (INF-β transcripts): 8 µM
CC50 [1]: > 50 µM

SMILES: OC1(c2ccccc2)CSC(=S)N1Cc1cccnc1 (stereo not shown) [COB-152]
IC50 (IL-6 transcripts): 4.25 µM
IC50 (iNOS transcripts): 0.156 µM
IC50 (INF-β transcripts): 0.156 µM
CC50 [1]: 18 µM

SMILES: COc1ccc(OC)c(-c2c[nH]c(=S)n2C)c1 [COB-132]
IC50 (IL-6 transcripts): 26 µM
IC50 (iNOS transcripts): 38 µM
IC50 (INF-β transcripts): 85 µM
CC50 [1]: 360 µM

SMILES: OC1(c2ccccc2)CSC(=S)N1Cc1ccc2[nH]ccc2c1 (stereo not shown) [COB-188]
IC50 (iNOS transcripts): 0.25 µM
IC50 (INF-β transcripts): 0.25 µM
CC50 [1]: 13 µM

SMILES: Cn1c(-c2cccc(Cl)c2)c[nH]c1=S [COB-119]
IC50 (IL-6 transcripts): 45 µM
IC50 (iNOS transcripts): 60 µM
IC50 (INF-β transcripts): 46 µM
CC50 [1]: 390 µM

SMILES: Oc1ccc(Cl)cc1C1(O)CSC(=S)N1Cc1cccnc1 (stereo not shown) [COB-222]
IC50 (IL-6 transcripts): 8.6 µM
IC50 (iNOS transcripts): 0.45 µM
IC50 (INF-β transcripts): 0.45 µM
CC50 [1]: 15 µM

SMILES: OC1(c2ccccc2)CSC(=S)N1CCCc1ccccc1 (stereo not shown) [COB-168]
IC50 (IL-6 transcripts): 17 µM
IC50 (iNOS transcripts): 1.5 µM
IC50 (INF-β transcripts): 1.5 µM
CC50 [1]: 12 µM

SMILES: OC1(c2ccccc2)CSC(=S)N1Cc1ccncc1 (stereo not shown) [COB-187]
IC50 (iNOS transcripts): 0.375 µM
IC50 (INF-β transcripts): 0.125 µM
CC50 [1]: 15 µM

The remaining compounds from weak to strong by IC50 (INF-β transcripts), led by results:

IC50 (IL-6 transcripts): 66 µM
IC50 (iNOS transcripts): 87 µM
IC50 (INF-β transcripts): 135 µM
SMILES: Cn1c(-c2ccc(OC(F)(F)F)cc2)c[nH]c1=S [COB-134]

IC50 (IL-6 transcripts): 10.5 µM
IC50 (iNOS transcripts): 54 µM
IC50 (INF-β transcripts): 30 µM
SMILES: COc1ccc(-c2csc(=S)n2Cc2cccnc2)cc1 [COB-206]
CC50 [1]: 120 µM

IC50 (IL-6 transcripts): 9.5 µM
IC50 (INF-β transcripts): 10.5 µM
SMILES: CCCCCCn1c(-c2ccccc2)csc1=S [COB-218]
MTS signal decrease (Murine macrophages): 0%

IC50 (IL-6 transcripts): 16 µM
IC50 (iNOS transcripts): 2 µM
IC50 (INF-β transcripts): 3 µM
SMILES: CCCN1C(=S)SCC1(O)c1ccc(Cl)c(Cl)c1 (stereo not shown) [COB-210]
CC50 [1]: 45 µM

IC50 (iNOS transcripts): 2.5 µM
IC50 (INF-β transcripts): 2.5 µM
SMILES: COc1ccc(OC)c(C2(O)CSC(=S)N2Cc2cccnc2)c1 (stereo not shown) [COB-197]

IC50 (iNOS transcripts): 0.45 µM
IC50 (INF-β transcripts): 1.25 µM
SMILES: COc1ccc(C2(O)CSC(=S)N2Cc2cccnc2)cc1 (stereo not shown) [COB-201]
CC50 [1]: 10 µM

IC50 (iNOS transcripts): 0.15 µM
IC50 (INF-β transcripts): 0.2 µM
SMILES: Oc1cccc(C2(O)CSC(=S)N2Cc2cccnc2)c1 (stereo not shown) [COB-198]
CC50 [1]: 17 µM
